# Values of other authors as cited in US20150065582A1, “Orally Dissolving Formulations of Memantine” (Forest Laboratories Holdings Limited, priority 2006, published 2015).
# Counter-ions that a name gives are not always drawn.
# Assays:
# [1] = oral administration of immediate release tablets
solubility (classification),absolute bioavailability [1],Structure (SMILES)
highly soluble,–,CC12CC3CC(C)(C1)CC(N)(C3)C2 [Memantine HCl]
–,approximately 100%,"CC12CC3CC(C)(C1)CC(N)(C3)C2 [memantine, 1-amino-3,5-dimethyl adamantane]"
